Data published in ChEMBL document CHEMBL6087396, “Perspective for Drug Discovery Targeting SARS Coronavirus Methyltransferases: Function, Structure and Inhibition” (J Med Chem, 2024).

target: Replicase polyprotein 1ab; experiment: Inhibition of N-terminal 6His-tagged SARS-CoV nsp14 extracted from Escherichia coli; settings: not given

| Structure (SMILES) | IC50 [nM] |
| --- | --- |
| Nc1ncnc2c1ncn2[C@@H]1O[C@H](CN(CCO[C@@H]2[C@H](O)[C@@H](CO)O[C@H]2n2cnc3c(N)ncnc32)S(=O)(=O)c2ccc(Cl)c([N+](=O)[O-])c2)[C@@H](O)[C@H]1O | 600 |
| CC1=C(C)C(=O)C(C(C)(C)CC(=O)N(CCCCSC[C@H]2O[C@@H](n3cnc4c(N)ncnc43)[C@H](O)[C@@H]2O)Cc2cccc(-c3ccc(Cl)cc3)c2)=C(C)C1=O | 1100 |
| Nc1ncnc2c1ncn2[C@@H]1O[C@H](CNS(=O)(=O)c2ccc3ccccc3c2)[C@@H](O)[C@H]1O | 93000 |
| COc1ccc(S(=O)(=O)N(C)C[C@H]2O[C@@H](n3cc(C#Cc4cnc5ccccc5c4)c4c(N)ncnc43)[C@H](O)[C@@H]2O)cc1C#N | 720 |
| NC[C@@H](CC[C@H](N)C(=O)O)C[C@H]1O[C@@H](n2cnc3c(N)ncnc32)[C@H](O)[C@@H]1O | 1100 |
| Cc1cc(=O)oc2cc(NC(=O)[C@H]3O[C@@H](n4cc(C#Cc5cncnc5)c5c(N)ncnc54)[C@H](O)[C@@H]3O)ccc12 | 31000 |
| Nc1ncnc2c1c(C#Cc1cnc3ccccc3c1)cn2[C@@H]1O[C@H](CSCC[C@H](N)C(=O)O)[C@@H](O)[C@H]1O | 3 |
| Nc1ncnc2c1ncn2[C@@H]1O[C@H](CSCc2cc(C(=O)O)cc(-c3ccccc3)c2)[C@@H](O)[C@H]1O | 580 |
| Nc1ncnc2c1ncn2[C@@H]1O[C@H](CSCC[C@H](N)C(=O)O)[C@@H](O)[C@H]1O [S-ADENOSYLHOMOCYSTEINE] | 16000 |

target: T1, Replicase polyprotein 1ab (Severe acute respiratory syndrome coronavirus 2, UniProt P0DTD1); experiment: Binding affinity to SARS-CoV-2 nsp14 assessed as dissociation constant; settings: not given

| Structure (SMILES) | Kd [nM] |
| --- | --- |
| NC[C@@H](CC[C@H](N)C(=O)O)C[C@H]1O[C@@H](n2cnc3c(N)ncnc32)[C@H](O)[C@@H]1O | 1.6 |
| Nc1ncnc2c1c(C#Cc1cnc3ccccc3c1)cn2[C@@H]1O[C@H](CSCC[C@H](N)C(=O)O)[C@@H](O)[C@H]1O | 25.2 |

target: T1, Replicase polyprotein 1ab; experiment: Binding affinity to SARS-CoV-2 nsp14 assessed as inhibition constant; settings: not given

| Structure (SMILES) | Ki [nM] |
| --- | --- |
| CC(C)N(CCCNC(=O)Nc1ccc(C(C)(C)C)cc1)C[C@H]1O[C@@H](n2cc(Br)c3c(N)ncnc32)[C@H](O)[C@@H]1O | 8000 |
| Nc1ncnc2c1ncn2[C@@H]1O[C@H](CSCCCCNCc2cccc(-c3ccc(Cl)cc3)c2)[C@@H](O)[C@H]1O | 6000 |

test system: SARS-CoV-2; experiment: Antiviral activity against SARS-CoV-2 infected in African green monkey Vero E6 cells assessed as inhibition of viral growth incubated for 72 hrs by plaque assay; format: functional, organism-based; settings: Severe acute respiratory syndrome coronavirus 2, Vero C1008, 72 h

| Structure (SMILES) | EC50 [nM] |
| --- | --- |
| CC(=O)c1cc(O)c2ccccc2c1O | 8.5 |
| O=c1nc2n(CCO)c3ccccc3nc-2c(=O)n1-c1ccccc1 | 5.7 |
| CCN(C[C@H]1O[C@@H](n2cnc3c(N)ncnc32)[C@H](O)[C@@H]1O)S(=O)(=O)c1ccc(Cl)c(C#N)c1 | 1.9 |
| O=C(O)C1=CC(=C(c2ccc(O)c(C(=O)O)c2)c2ccc(O)c(C(=O)O)c2)C=CC1=O [AURINTRICARBOXYLIC ACID] | 0.47 |
| O=c1c2ccccc2[se]n1-c1ccccc1 [EBSELEN] | 34 |
| N#Cc1ccc(N2N=C3c4ccc(C(=O)O)cc4CC[C@@H]3[C@@H]2C2CCCC2)cc1Cl [PF-03882845] | 11 |
